# Legend:
# [1] = Garner et al 2015; Pagnozzi et al 1995; Preskorn et al 2008; cited from earlier work
# [2] = test system: patients with treatment resistant depression (TRD); assay: Phase IIa proof of concept study, efficacy (MADRS, CGI-I); format: in vivo, human
# Experimental: (§1) A multi-center, randomized, subject and investigator blinded, placebo controlled, active comparator, parallel group, proof of concept study to evaluate the efficacy, safety, tolerability, and pharmacokinetics of Compound (I) in patients with treatment resistant depression (TRD). The study included two different active Compound (I) doses of 0.16 mg/kg and 0.32 mg/kg given in two different regiments—weekly and bi-weekly (every other week). The study also included a ketamine arm.
# (§2) Adults with major depressive disorder and prior failure of ≥2 standard antidepressants of adequate dose and >8 weeks duration in a major depressive episode (per DSM-5 criteria) and Montgomery-Åsberg Depression Rating Scale (MADRS) score ≥24 were eligible. Patients were randomized (3:3:3:3:6:4) to one of six treatment arms for 36 days: low dose (0.16 mg/kg) Compound (I) weekly (N=11) or every other week (q2w [N=10]); high dose (0.32 mg/kg) Compound (I) weekly (N=10) or q2w (N=9); placebo (N=20); or ketamine 0.5 mg/kg weekly (N=10). Change in MADRS total score at 24 hours (h) from baseline (primary endpoint), was analyzed using analysis of covariance. Secondary endpoints included change in MADRS score at 48 hours and 6 weeks and clinical global impression-improvement (CGI-I) score at 24 hours, 48 hours and 6 weeks. Safety and tolerability were also assessed.
# [3] = test system: patients with treatment resistant depression (TRD); assay: Phase IIa proof of concept study, safety and tolerability (adverse events); format: in vivo, human
# Experimental: as §1, §2
# [4] = test system: patients with unipolar and bipolar depression; conditions: cited from earlier work
smiles,measurement,setting,value
"C[C@@H]([C@@H](O)c1ccc(O)cc1)N1CCC(O)(c2ccccc2)CC1 [CP-101,606]",frequency of dissociative adverse events,[1],low frequencies of dissociative adverse events
Oc1ccc([C@@H](O)CN2C[C@H]3C[C@H](Oc4ccccc4F)C[C@H]3C2)nc1 [Compound (I)],time in which efficacy occurred,"[2]; 0.16 mg/kg or 0.32 mg/kg, weekly or every other week",≤ 24 h
same,ΔAM [80% CI] in MADRS score vs placebo,"[2]; Week 6, 0.16 mg/kg q2w, 80% CI [−11.8, −1.15], p=0.059, greatest benefit",−6.46
same,maintenance of efficacy,[2]; after repeated dosing,maintained at 6 weeks
same,CGI-I scores vs placebo,"[2]; at 24 hours, 48 hours and 6 weeks",suggested benefits
same,Adjusted mean difference (ΔAM) in MADRS vs placebo,"[2]; at 24 hours, pooled 0.16 mg/kg, p=0.001",−8.25
same,mean decrease in MADRS score,"[2]; at 24 hours, pooled Compound (I) 0.16 mg/kg group (weekly and q2w)",15.51 points
same,mean decrease in MADRS score,"[2]; at 24 hours, pooled Compound (I) 0.32 mg/kg group (weekly and q2w)",12.98 points
same,Adjusted mean difference (ΔAM) in MADRS vs placebo,"[2]; at 24 hours, second pooled Compound (I) group (dose figure missing in print), p=0.019",−5.71
same,Adjusted mean difference (ΔAM) in MADRS vs placebo,"[2]; at 48 h, pooled 0.16 mg/kg, p=0.013",−7.06
same,Adjusted mean difference (ΔAM) in MADRS vs placebo,"[2]; at 48 h, second pooled Compound (I) group (dose figure missing in print), p=0.013",−7.37
same,efficacy of 0.16 mg/kg compared with 0.32 mg/kg,[2]; each administered once every week or once every other week,as effective as a dose of 0.32 mg/kg
same,improvement in MADRS score vs placebo,"[2]; patients with TRD, overall conclusion",significant improvement
same,Time to both onset and resolution of dissociative AEs and sedation,[3]; in vivo,longer for Compound (I) than for ketamine
same,safety signals,[3]; in vivo,No new safety signals were identified
Cc1ccc(COC(=O)N2CC[C@H](CNc3ncccn3)[C@H](F)C2)cc1 [MK-0657],frequency of dissociative adverse events,[1],low frequencies of dissociative adverse events
CNC1(c2ccccc2Cl)CCCCC1=O (stereo not drawn) [ketamine],Adjusted mean difference (ΔAM) in MADRS vs placebo,"[2]; at 24 hours, ketamine 0.5 mg/kg weekly, p=0.046",−5.67
same,mean decrease in MADRS score,"[2]; at 24 hours, ketamine group, 0.5 mg/kg weekly",12.94 points
same,Adjusted mean difference (ΔAM) in MADRS vs placebo,"[2]; at 48 h, ketamine 0.5 mg/kg weekly, p=0.019",−11.02
same,"Adverse events (AEs), patients",[3]; ketamine 0.5 mg/kg weekly,50%
same,"Dissociative AEs, patients",[3]; ketamine 0.5 mg/kg weekly,50%
same,incidence of sedation,[3]; ketamine 0.5 mg/kg weekly,10%
same,effect on suicidality,"[4]; Katalinic et al 2013, Murrough et al 2015",reduce suicidality
same,antidepressant effects,"[4]; single dose 0.5 mg/kg infused over 40 minutes, 7 patients, Berman et al 2000",rapid antidepressant effects
